Test results reported in paper PMC3237634 (Bioorganic & medicinal chemistry letters, 2011).
Where two headings read alike, the source gives them in different places.

What was measured:
hPEPT1 [1] = biological target: T1, hPEPT1 (Homo sapiens, UniProt P46059); details: value obtained by refitting data presented in Thorn et al.; cited from earlier work
T1 sequence (P46059 1-708): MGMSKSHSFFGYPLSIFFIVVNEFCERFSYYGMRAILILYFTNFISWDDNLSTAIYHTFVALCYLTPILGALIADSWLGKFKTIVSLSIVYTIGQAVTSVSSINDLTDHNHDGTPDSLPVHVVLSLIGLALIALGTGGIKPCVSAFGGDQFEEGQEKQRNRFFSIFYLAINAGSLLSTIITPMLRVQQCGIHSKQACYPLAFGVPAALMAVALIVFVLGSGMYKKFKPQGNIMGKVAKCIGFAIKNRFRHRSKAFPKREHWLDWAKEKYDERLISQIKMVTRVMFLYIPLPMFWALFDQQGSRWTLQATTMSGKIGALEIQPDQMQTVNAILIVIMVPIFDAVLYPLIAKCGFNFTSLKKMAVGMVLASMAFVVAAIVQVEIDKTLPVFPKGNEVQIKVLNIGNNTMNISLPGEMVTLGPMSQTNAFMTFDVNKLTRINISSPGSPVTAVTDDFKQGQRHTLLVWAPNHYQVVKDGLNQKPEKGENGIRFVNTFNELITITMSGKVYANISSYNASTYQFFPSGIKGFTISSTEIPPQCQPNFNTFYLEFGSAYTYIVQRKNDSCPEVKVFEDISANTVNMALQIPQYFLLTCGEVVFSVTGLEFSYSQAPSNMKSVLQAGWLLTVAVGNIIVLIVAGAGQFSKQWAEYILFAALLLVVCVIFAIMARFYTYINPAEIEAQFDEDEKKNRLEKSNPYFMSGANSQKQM

hPEPT1 [2] = biological target: T1, hPEPT1; details: investigation of 55 tripeptides; cited from earlier work
hPEPT1 [3] = biological target: T1, hPEPT1; format: cell-based; details: for affinity for hPEPT1 compared to the lead promoiety H-Phe-Ser-Ala-OH: statistical comparison, N = 3

Row | Compound | interaction with hPEPT1 in translocation study (hPEPT1 [2]) | affinity for hPEPT1 compared to the lead promoiety H-Phe-Ser-Ala-OH (hPEPT1 [3]) | also measured
1 | H-Phe-Ser-Ala-OH |  |  | Ki (hPEPT1 [1]): 260 µM
2 | Met-Pro-Pro | inhibitor |  | 
3 | Asp-Ile-Arg | not recognized by hPEPT1 |  | 
4 | C[C@H](NC(=O)[C@H](COC(=O)c1ccccc1)CC(=O)[C@@H](N)Cc1ccccc1)C(=O)O.O=C(O)C(F)(F)F [Compound 14A, H-Phe-ψ[COCH2]Ser(Bz)-Ala-OH] |  | did not have significantly different affinities | 
5 | N[C@@H](Cc1ccccc1)C(=O)C[C@@H](COC(=O)c1ccccc1)C(=O)N[C@H](C(=O)O)C1CCCCC1.O=C(O)C(F)(F)F [Compound 14C, H-Phe-ψ[COCH2]Ser(Bz)-Chg-OH] |  | significantly higher affinity | Ki (hPEPT1 [3]): 50 µM
6 | CCC[C@H](NC(=O)[C@H](COC(=O)c1ccccc1)CC(=O)[C@@H](N)Cc1ccccc1)C(=O)O.O=C(O)C(F)(F)F [Compound 14B, H-Phe-ψ[COCH2]Ser(Bz)-Nva-OH] |  | did not have significantly different affinities | 
